The text below walks through data of ChEMBL document CHEMBL1201862, “PubChem BioAssay data set” (2004).

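These data come from cells grown in 96-well plates and exposed to compound for 48 hours at five concentrations. Here, GI50 denotes the concentration required for 50% inhibition of growth.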 The source made the active and inactive calls. Rule as the data show it: active = GI50 up to about 1.1 µM and inactive = higher.

Common to all, as to test: inhibition of tumour cell growth, NCI panel, 48 h
For test [1], the system named is OVCAR-8.
Test [2] deals with OVCAR-3.
Test [3] concerns DU-145.
Test [4] has as its system KM12.
Test [5] deals with SN12C.
Test [6] relates to UACC-62.
Test [7] concerns HCC 2998.
In test [8] the test system is NCI-H226.
For test [9], the system named is SK-MEL-2.
The test system of test [10] is Hs-578T.
Test [11] has as its system LOX IMVI.
Test [12] deals with HOP-92.
Test [13] relates to U-251.
Test [14] has as its system SNB-75.
Test [15] concerns Malme-3M.
Test [16] concerns OVCAR-5.
Test [17] deals with TK-10.
Test [18] has as its system A498.
Test [19] has as its system SW-620.
The subject of test [20] is SNB-19.

Regarding `CN(C)S(=O)(=O)Nc1ccccn1`, the GI50 in test [1], in test [2], in [3], in test [4], in [5] and in test [6] was > 100 µM (inactive) throughout. Moreover, the GI50 in [7], in test [8], in test [9], in [10], in test [11] and in test [12] was > 100 µM (inactive) throughout. The GI50 in test [13], in [14], in [15], in test [16], in test [17] and in [18] was > 100 µM (inactive) in each case. Further, the GI50 in [19] and in test [20] was > 100 µM (inactive) each time.

As for `COC(C)C(O)(C(=O)OCC1=CCN2CCC(O)C12)C(C)(C)O` (stereo not given), the GI50 in test [1], in test [2], in [3], in [4], in [5] and in [6] was > 100 µM (inactive) each time. In addition, the GI50 in test [7], in test [8], in test [9], in test [10], in [11] and in test [12] was > 100 µM (inactive) throughout. In addition, the GI50 in test [13], in test [14], in test [15], in test [16], in test [17] and in test [18] was > 100 µM (inactive) in each case. The GI50 in test [19] and in [20] was > 100 µM (inactive) each time.

For `CCOC(=O)c1cccc(/N=N/Nc2cccc(C(=O)OCC)c2)c1`, the GI50 in [1] is 25.5 µM (inactive); in [2], 26.8 µM (inactive); in test [3], > 100 µM (inactive); in test [4], > 100 µM (inactive); in [5], 30.1 µM (inactive); in test [6], 71.8 µM (inactive). Also, the GI50 in test [7] is > 100 µM (inactive); in test [8], 43.5 µM (inactive); in [9] it was 34.2 µM (inactive); in test [10], 30.8 µM (inactive); in [11], > 100 µM (inactive); in [12], 22.3 µM (inactive). Moreover, the GI50 in [13] was 20.1 µM (inactive); in test [14] it was 14.6 µM (inactive); in test [15], 43.8 µM (inactive); in test [16], 78.7 µM (inactive); in [17], 27.5 µM (inactive); in [18] it was 30.8 µM (inactive). Moreover, the GI50 is 68.7 µM (inactive) in [19] and 20.6 µM (inactive) in test [20].

As to `N=C(N)N/N=C(\c1ccc(F)cc1)c1ccc(C(F)(F)F)cc1`, the GI50 in test [1] is 0.376 µM (active); in test [2] it was 0.33 µM (active); in test [3], 0.538 µM (active); in [4] it was 0.203 µM (active); in test [5], 0.64 µM (active); in test [6], 0.282 µM (active). Moreover, the GI50 in test [7] is 0.542 µM (active); in [8] it was 0.348 µM (active); in [9], 1.24 µM (inactive); in [10], 0.36 µM (active); in test [11] it was 0.323 µM (active); in test [12], 1.46 µM (inactive). Also, the GI50 in test [13] was 0.473 µM (active); in test [14], 1.75 µM (inactive); in test [15] it was 0.851 µM (active); in [16], 0.497 µM (active); in test [17] it was 1.66 µM (inactive); in [18] it was < 0.01 µM (active). For the same molecule, the GI50 in test [19] is 0.254 µM (active); in test [20] it was 0.573 µM (active).

On to `CNC(=O)NC(CCCCNC(=O)OCc1ccccc1)C(=O)OCc1ccccc1` (stereo not given), for which the GI50 in test [1] is 61.4 µM (inactive); in test [2] it was 21.1 µM (inactive); in test [3], > 100 µM (inactive); in [4], > 100 µM (inactive); in [5] it was 39.5 µM (inactive); in test [6] it was 16.7 µM (inactive). Besides, the GI50 in [7] is 30.5 µM (inactive); in test [8], 42.9 µM (inactive); in test [9], 17.8 µM (inactive); in test [10], 79.8 µM (inactive); in test [11], 34.3 µM (inactive); in test [12] it was 16.6 µM (inactive). Moreover, the GI50 in test [13] is 65.9 µM (inactive); in [14] it was 5.69 µM (inactive); in [15], 27 µM (inactive); in test [16], > 61.4 µM (inactive); in test [17], 38.3 µM (inactive); in [18], 20.3 µM (inactive). For the same molecule, the GI50 in [19] was > 97.5 µM (inactive); in test [20] it was > 100 µM (inactive).

In the case of `COc1cc2c(cc1OC)C(=O)/C(=C/c1ccccc1)C2`, the GI50 in test [1] is > 100 µM (inactive); in [2], > 100 µM (inactive); in [3], > 94.2 µM (inactive); in test [4], 60.8 µM (inactive); in [5], > 100 µM (inactive); in [6] it was 30.5 µM (inactive). Moreover, the GI50 in [7] was 78.3 µM (inactive); in test [8], > 81.8 µM (inactive); in test [9], > 100 µM (inactive); in [10] it was > 100 µM (inactive); in [11] it was 86.5 µM (inactive); in test [12], > 70 µM (inactive). Also, the GI50 is > 100 µM (inactive) in [13]; > 39.4 µM (inactive) in test [14]; > 83 µM (inactive) in test [15]; > 100 µM (inactive) in [16]; > 100 µM (inactive) in test [17]; 4.54 µM (inactive) in test [18]. Moreover, the GI50 in [19] was 94 µM (inactive); in test [20] it was > 100 µM (inactive).

As to `N#Cc1c(N)c2c(c(-c3ccccc3)c1-c1ccccc1)C(=O)N(NC(=O)c1ccccc1)C2=O`, the GI50 was > 100 µM (inactive) in [1]; 31 µM (inactive) in test [2]; > 100 µM (inactive) in [3]; > 100 µM (inactive) in [4]; > 100 µM (inactive) in [5]; 75.9 µM (inactive) in [6]. The GI50 in test [7] was > 100 µM (inactive); in test [8] it was > 100 µM (inactive); in [9], > 100 µM (inactive); in [10], 90.6 µM (inactive); in test [11], > 100 µM (inactive); in test [12] it was 60.5 µM (inactive). Besides, the GI50 in [13] is > 100 µM (inactive); in test [14], > 100 µM (inactive); in test [15], > 100 µM (inactive); in test [16], > 100 µM (inactive); in test [17] it was > 100 µM (inactive); in [18], 41.9 µM (inactive). Further, the GI50 is > 100 µM (inactive) in test [19] and 58.5 µM (inactive) in test [20].

`O=C1c2c(Br)sc(Br)c2C(NC(=O)C(F)(F)F)C1O` (stereo not given): the GI50 was 20.3 µM (inactive) in [1]; 19.3 µM (inactive) in [2]; 20.5 µM (inactive) in [3]; 30.1 µM (inactive) in [4]; 18.7 µM (inactive) in [5]; 20.3 µM (inactive) in [6]. Further, the GI50 was 18.2 µM (inactive) in test [7]; 29.5 µM (inactive) in [8]; 16.7 µM (inactive) in test [9]; 32.8 µM (inactive) in test [10]; 21.8 µM (inactive) in [11]; 18.8 µM (inactive) in test [12]. Further, the GI50 in test [13] is 19.5 µM (inactive); in test [14], 27.9 µM (inactive); in [15], 20.2 µM (inactive); in test [16], 19.7 µM (inactive); in test [17], > 100 µM (inactive); in test [18], > 100 µM (inactive). In addition, the GI50 is 17.8 µM (inactive) in test [19] and 24.4 µM (inactive) in [20].

For `C[C@H](C(O)CC(=O)C(C)(C)O)[C@H]1CC[C@@]2(C)[C@@H]3CC[C@H]4C(C)(C)[C@@H](OC5OC(COC6OC(CO)C(O)C(O)C6O)C(O)C(O)C5O)CC[C@]4(C)C3=CC[C@]12C` (stereo not given in full), the GI50 in test [1], in [2], in test [3], in [4], in [5] and in test [6] was > 100 µM (inactive) throughout. Also, the GI50 in test [7], in [8], in [9], in test [10], in test [11] and in test [12] was > 100 µM (inactive) in each case. Also, the GI50 in test [13], in test [14], in [15], in test [16], in test [17] and in [18] was > 100 µM (inactive) each time. In addition, the GI50 in [19] and in test [20] was > 100 µM (inactive) each time.

Turning to `COC(=O)C1=CC2CCCC1(O)C(C(C)=O)C2` (stereo not given), the GI50 was 44.4 µM (inactive) in test [1]; > 100 µM (inactive) in [2]; > 69.7 µM (inactive) in test [3]; > 81.1 µM (inactive) in test [4]; > 100 µM (inactive) in [5]; > 94.4 µM (inactive) in test [6]. The GI50 is > 100 µM (inactive) in test [7]; > 100 µM (inactive) in test [8]; > 68.7 µM (inactive) in test [9]; > 100 µM (inactive) in test [10]; 16.6 µM (inactive) in test [11]; 41.4 µM (inactive) in [12]. In addition, the GI50 in test [13] was 63.2 µM (inactive); in test [14], 24.4 µM (inactive); in [15] it was > 100 µM (inactive); in [16] it was > 100 µM (inactive); in test [17], > 100 µM (inactive); in test [18] it was > 100 µM (inactive). Also, the GI50 in test [19] was > 61.8 µM (inactive); in [20], > 100 µM (inactive).
